# Earlier results in US20090092650A1, “Sustained Delivery Formulations of Octreotide Compounds” (priority 2004, published 2009).
# Conditions: Marbach et al. 1992
compound,measurement,value
C[C@@H](O)[C@@H]1NC(=O)[C@H](CCCCN)NC(=O)[C@@H](Cc2c[nH]c3ccccc23)NC(=O)[C@H](Cc2ccccc2)NC(=O)[C@@H](NC(=O)[C@H](N)Cc2ccccc2)CSSC[C@@H](C(=O)N[C@H](CO)[C@@H](C)O)NC1=O [octreotide],Therapeutic plasma level,0.3 ng/mL
